Test results: article PMC8635029 (Frontiers in Pharmacology, 2021)

Assays:
Assay in all cases: In vitro SafetyScreen panel
Format in all cases: binding
Adrenergic β1 = target: T1, Adrenergic β1 (Homo sapiens, UniProt P08588)
T1 construct: Eurofins Discovery (contract panel) PP223
Procedure: (§1) In vitro off-target pharmacological activities of HSK21542 were evaluated on 86 targets using a SafetyScreen panel (Item PP223, target selectivity panel) and the corresponding methods could be found at https://www.eurofinsdiscoveryservices.com/.

Adrenergic α1A = target: T2, Adrenergic α1A (Rattus norvegicus, UniProt P43140)
T2 construct: Eurofins Discovery (contract panel) PP223
Procedure: as §1

Histamine H1 = target: T3, Histamine H1 (Homo sapiens, UniProt P35367)
T3 construct: Eurofins Discovery (contract panel) Item PP223
T3 sequence (P35367 whole entry): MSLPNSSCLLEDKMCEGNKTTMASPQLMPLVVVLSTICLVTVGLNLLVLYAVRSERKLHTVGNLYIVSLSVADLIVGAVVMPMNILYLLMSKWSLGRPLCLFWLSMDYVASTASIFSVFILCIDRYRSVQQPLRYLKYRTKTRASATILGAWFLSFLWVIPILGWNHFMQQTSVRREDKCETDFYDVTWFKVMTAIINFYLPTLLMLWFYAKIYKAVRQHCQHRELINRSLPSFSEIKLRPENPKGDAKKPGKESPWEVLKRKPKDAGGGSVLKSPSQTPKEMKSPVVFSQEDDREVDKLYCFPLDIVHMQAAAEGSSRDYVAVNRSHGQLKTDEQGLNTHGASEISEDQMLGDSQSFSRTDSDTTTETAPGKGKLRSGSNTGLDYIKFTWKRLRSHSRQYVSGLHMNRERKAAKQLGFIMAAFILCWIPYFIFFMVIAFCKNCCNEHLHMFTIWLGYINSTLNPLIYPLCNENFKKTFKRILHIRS
Procedure: as §1

Adrenergic α1B = target: T4, Adrenergic α1B (Rattus norvegicus, UniProt P15823)
T4 construct: Eurofins Discovery (contract panel) PP223
Procedure: as §1

Adrenergic α1D = target: T5, Adrenergic α1D (Homo sapiens, UniProt P25100)
T5 construct: Eurofins Discovery (contract panel) PP223
T5 sequence (P25100 whole entry): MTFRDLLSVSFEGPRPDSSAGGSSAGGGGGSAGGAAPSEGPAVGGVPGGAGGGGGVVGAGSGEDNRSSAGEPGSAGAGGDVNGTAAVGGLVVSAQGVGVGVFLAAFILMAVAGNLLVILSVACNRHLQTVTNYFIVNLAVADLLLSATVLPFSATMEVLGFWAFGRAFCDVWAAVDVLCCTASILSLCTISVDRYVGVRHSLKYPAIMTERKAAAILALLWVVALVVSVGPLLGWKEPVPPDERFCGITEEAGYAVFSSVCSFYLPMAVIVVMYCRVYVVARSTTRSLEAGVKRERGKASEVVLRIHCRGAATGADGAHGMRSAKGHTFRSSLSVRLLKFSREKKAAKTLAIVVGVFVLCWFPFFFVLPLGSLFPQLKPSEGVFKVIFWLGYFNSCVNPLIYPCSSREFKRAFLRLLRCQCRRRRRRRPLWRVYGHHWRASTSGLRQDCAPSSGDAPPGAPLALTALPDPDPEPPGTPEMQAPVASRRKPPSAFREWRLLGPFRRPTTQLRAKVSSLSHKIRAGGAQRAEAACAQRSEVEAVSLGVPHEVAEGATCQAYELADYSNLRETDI
Procedure: as §1

[1] = target: T6, Serotonin (5-Hydroxytryptamine) 5-HT2A (Homo sapiens, UniProt P28223)
T6 construct: Eurofins Discovery (outsourced panel) PP223
Procedure: as §1

Chemokine CXCR2 (IL-8RB) = target: T7, Chemokine CXCR2 (IL-8RB) (Homo sapiens, UniProt P25025)
T7 construct: Eurofins Discovery (contract panel) PP223
Procedure: as §1

Muscarinic M1 = target: T8, Muscarinic M1 (Homo sapiens, UniProt P11229)
T8 construct: Eurofins Discovery (outsourced panel) PP223
Procedure: as §1

Endothelin ETA = target: T9, Endothelin ETA (Homo sapiens, UniProt P25101)
T9 construct: Eurofins Discovery (contract panel) Item PP223
T9 sequence (P25101 21-427): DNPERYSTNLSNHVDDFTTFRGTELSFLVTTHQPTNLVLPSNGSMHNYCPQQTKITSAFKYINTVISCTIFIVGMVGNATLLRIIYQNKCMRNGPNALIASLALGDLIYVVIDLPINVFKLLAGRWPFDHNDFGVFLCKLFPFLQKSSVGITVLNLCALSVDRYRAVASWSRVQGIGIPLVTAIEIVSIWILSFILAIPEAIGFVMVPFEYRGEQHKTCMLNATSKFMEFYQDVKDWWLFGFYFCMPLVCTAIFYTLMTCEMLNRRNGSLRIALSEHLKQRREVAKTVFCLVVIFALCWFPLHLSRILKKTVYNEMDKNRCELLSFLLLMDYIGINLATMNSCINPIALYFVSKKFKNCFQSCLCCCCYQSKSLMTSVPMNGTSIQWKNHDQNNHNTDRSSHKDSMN
Procedure: as §1

Muscarinic M2 = target: T10, Muscarinic M2 (Homo sapiens, UniProt P08172)
T10 construct: Eurofins Discovery (outsourced panel) PP223
Procedure: as §1

[2] = target: T11, Serotonin (5-Hydroxytryptamine) 5-HT1A (Homo sapiens, UniProt P08908)
T11 construct: Eurofins Discovery (outsourced panel) PP223
Procedure: as §1

Adenosine A2A = target: T12, Adenosine A2A (Homo sapiens, UniProt P29274)
T12 construct: Eurofins Discovery (contract panel) PP223
Procedure: as §1

[3] = target: T13, Serotonin (5-Hydroxytryptamine) 5-HT2C (Homo sapiens, UniProt P28335)
T13 construct: Eurofins Discovery (contract panel) PP223
Procedure: as §1

Muscarinic M3 = target: T14, Muscarinic M3 (Homo sapiens, UniProt P20309)
T14 construct: Eurofins Discovery (outsourced panel) PP223
T14 sequence (P20309 whole entry): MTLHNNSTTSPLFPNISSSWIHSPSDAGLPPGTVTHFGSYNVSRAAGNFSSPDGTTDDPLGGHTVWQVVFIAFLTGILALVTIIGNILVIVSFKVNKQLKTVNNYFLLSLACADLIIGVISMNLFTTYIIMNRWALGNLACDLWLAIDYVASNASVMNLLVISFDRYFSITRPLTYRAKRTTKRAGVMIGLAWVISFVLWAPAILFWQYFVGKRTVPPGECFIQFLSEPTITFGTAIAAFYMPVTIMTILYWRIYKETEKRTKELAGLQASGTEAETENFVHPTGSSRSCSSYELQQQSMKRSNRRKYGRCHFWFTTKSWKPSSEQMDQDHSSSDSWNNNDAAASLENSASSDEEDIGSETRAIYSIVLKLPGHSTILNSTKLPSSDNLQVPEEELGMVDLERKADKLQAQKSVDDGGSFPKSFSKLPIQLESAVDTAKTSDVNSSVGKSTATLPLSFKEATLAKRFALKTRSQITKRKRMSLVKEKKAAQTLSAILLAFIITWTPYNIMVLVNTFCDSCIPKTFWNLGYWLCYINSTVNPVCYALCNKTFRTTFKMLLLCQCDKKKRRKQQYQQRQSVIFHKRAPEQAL
Procedure: as §1

[4] = target: T15, Glutamate, Metabotropic, mGlu5 (Homo sapiens, UniProt P41594)
T15 construct: Eurofins Discovery (contract panel) Item PP223
Procedure: as §1

Chemokine CCR1 = target: T16, Chemokine CCR1 (Homo sapiens, UniProt P32246)
T16 construct: Eurofins Discovery (contract panel) PP223
Procedure: as §1

Potassium Channel hERG = target: T17, Potassium Channel hERG (Homo sapiens, UniProt Q12809)
T17 construct: Eurofins Discovery (outsourced panel) PP223
Procedure: as §1

Glucocorticoid = target: T18, Glucocorticoid (Homo sapiens, UniProt P04150)
T18 construct: Eurofins Discovery (contract panel) Item PP223
Procedure: as §1

[5] = target: T19, Serotonin (5-Hydroxytryptamine) 5-HT3 (Homo sapiens, UniProt P46098)
T19 construct: Eurofins Discovery (contract panel) PP223
Procedure: as §1

GABAB1A = target: T20, GABAB1A (Homo sapiens, UniProt Q9UBS5)
T20 construct: Eurofins Discovery (contract panel) Item PP223
Procedure: as §1

Melanocortin MC4 = target: T21, Melanocortin MC4 (Homo sapiens, UniProt P32245)
T21 construct: Eurofins Discovery (contract panel) Item PP223
T21 sequence (P32245 whole entry): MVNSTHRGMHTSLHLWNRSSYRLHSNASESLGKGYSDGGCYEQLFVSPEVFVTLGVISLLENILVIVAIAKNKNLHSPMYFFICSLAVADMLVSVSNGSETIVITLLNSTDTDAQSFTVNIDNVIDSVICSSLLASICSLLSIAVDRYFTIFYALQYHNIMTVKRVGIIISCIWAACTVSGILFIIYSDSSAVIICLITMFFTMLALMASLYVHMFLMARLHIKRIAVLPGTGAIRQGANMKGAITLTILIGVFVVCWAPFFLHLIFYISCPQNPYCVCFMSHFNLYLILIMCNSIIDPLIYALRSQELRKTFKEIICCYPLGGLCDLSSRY
Procedure: as §1

Progesterone PR-B = target: T22, Progesterone PR-B (Homo sapiens, UniProt P06401)
T22 construct: Eurofins Discovery (outsourced panel) PP223
Procedure: as §1

Dopamine D2L = target: T23, Dopamine D2L (Homo sapiens, UniProt P14416)
T23 construct: Eurofins Discovery (contract panel) Item PP223
Procedure: as §1

[6] = target: T24, Leukotriene, Cysteinyl CysLT1 (Homo sapiens, UniProt Q9Y271)
T24 construct: Eurofins Discovery (contract panel) Item PP223
Procedure: as §1

Estrogen ERα = target: T25, Estrogen ERα (Homo sapiens, UniProt P03372)
T25 construct: Eurofins Discovery (contract panel) Item PP223
T25 sequence (P03372 whole entry): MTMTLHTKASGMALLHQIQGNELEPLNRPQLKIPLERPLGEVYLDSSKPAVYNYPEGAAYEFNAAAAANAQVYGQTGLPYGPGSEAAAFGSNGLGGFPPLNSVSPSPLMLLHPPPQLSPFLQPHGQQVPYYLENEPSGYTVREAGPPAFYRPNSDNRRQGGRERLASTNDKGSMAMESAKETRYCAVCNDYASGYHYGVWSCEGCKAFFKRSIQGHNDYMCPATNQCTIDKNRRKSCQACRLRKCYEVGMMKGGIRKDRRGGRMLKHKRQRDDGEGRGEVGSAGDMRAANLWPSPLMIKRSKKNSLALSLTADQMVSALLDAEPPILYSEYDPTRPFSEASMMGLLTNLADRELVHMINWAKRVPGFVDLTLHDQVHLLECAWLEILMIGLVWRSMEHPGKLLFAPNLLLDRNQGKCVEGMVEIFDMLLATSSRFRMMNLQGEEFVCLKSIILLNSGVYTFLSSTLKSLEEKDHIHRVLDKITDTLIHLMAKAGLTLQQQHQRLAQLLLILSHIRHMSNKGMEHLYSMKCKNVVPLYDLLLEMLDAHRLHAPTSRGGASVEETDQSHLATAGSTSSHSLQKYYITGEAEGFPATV
Procedure: as §1

[7] = target: T26, Platelet Activating Factor (PAF) (Homo sapiens, UniProt P25105)
T26 construct: Eurofins Discovery (outsourced panel) PP223
Procedure: as §1

[8] = target: T27, Transporter, Serotonin (5-Hydroxytryptamine) (SERT) (Homo sapiens, UniProt P31645)
T27 construct: Eurofins Discovery (contract panel) PP223
Procedure: as §1

Adenosine A1 = target: T28, Adenosine A1 (Homo sapiens, UniProt P30542)
T28 construct: Eurofins Discovery (contract panel) PP223
T28 sequence (P30542 whole entry): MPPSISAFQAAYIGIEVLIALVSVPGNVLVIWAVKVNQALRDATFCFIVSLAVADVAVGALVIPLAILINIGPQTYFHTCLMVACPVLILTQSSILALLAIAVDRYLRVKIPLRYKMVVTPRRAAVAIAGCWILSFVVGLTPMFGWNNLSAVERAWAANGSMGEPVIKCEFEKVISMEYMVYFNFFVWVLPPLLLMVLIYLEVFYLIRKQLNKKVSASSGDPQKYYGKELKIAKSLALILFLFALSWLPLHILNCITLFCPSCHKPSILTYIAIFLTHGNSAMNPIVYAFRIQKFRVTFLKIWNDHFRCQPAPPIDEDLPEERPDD
Procedure: as §1

[9] = target: T29, Transporter, Dopamine (DAT) (Homo sapiens, UniProt Q01959)
T29 construct: Eurofins Discovery (contract panel) PP223
Procedure: as §1

[10] = target: T30, Transporter, Norepinephrine (NET) (Homo sapiens, UniProt P23975)
T30 construct: Eurofins Discovery (contract panel) PP223
Procedure: as §1

Calcium Channel N-Type = target: T31, Calcium Channel N-Type (Rattus norvegicus, UniProt Q02294)
T31 construct: Eurofins Discovery (contract panel) PP223
Procedure: as §1

[11] = target: T32, Cholecystokinin CCK2 (CCKB) (Homo sapiens, UniProt P32239)
T32 construct: Eurofins Discovery (contract panel) PP223
Procedure: as §1

Adrenergic α2A = target: T33, Adrenergic α2A (Homo sapiens, UniProt P08913)
T33 construct: Eurofins Discovery (contract panel) PP223
Procedure: as §1

Muscarinic M4 = target: T34, Muscarinic M4 (Homo sapiens, UniProt P08173)
T34 construct: Eurofins Discovery (outsourced panel) PP223
T34 sequence (P08173 whole entry): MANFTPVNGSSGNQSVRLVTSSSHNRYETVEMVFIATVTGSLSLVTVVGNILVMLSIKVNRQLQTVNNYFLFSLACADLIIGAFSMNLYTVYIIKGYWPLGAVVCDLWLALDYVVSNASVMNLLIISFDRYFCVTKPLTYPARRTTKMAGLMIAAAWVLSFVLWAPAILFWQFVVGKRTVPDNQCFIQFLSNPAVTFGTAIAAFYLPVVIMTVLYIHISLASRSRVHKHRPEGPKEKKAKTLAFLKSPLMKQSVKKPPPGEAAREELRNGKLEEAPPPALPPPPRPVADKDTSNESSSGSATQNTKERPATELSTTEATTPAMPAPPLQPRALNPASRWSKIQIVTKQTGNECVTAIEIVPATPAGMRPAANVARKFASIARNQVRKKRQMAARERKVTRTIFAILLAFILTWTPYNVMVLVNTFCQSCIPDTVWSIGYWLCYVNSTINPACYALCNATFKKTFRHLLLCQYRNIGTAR
Procedure: as §1

Opiate μ (OP3, MOP) = target: T35, Opiate μ (OP3, MOP) (Homo sapiens, UniProt P35372)
T35 construct: Eurofins Discovery (outsourced panel) PP223
Procedure: as §1

Bradykinin B2 = target: T36, Bradykinin B2 (Homo sapiens, UniProt P30411)
T36 construct: Eurofins Discovery (contract panel) PP223
Procedure: as §1

Vasopressin V1A = target: T37, Vasopressin V1A (Homo sapiens, UniProt P37288)
T37 construct: Eurofins Discovery (contract panel) PP223
Procedure: as §1

PPARγ = target: T38, PPARγ (Homo sapiens, UniProt P37231)
T38 construct: Eurofins Discovery (outsourced panel) PP223
Procedure: as §1

Histamine H2 = target: T39, Histamine H2 (Homo sapiens, UniProt P25021)
T39 construct: Eurofins Discovery (contract panel) Item PP223
T39 sequence (P25021 whole entry): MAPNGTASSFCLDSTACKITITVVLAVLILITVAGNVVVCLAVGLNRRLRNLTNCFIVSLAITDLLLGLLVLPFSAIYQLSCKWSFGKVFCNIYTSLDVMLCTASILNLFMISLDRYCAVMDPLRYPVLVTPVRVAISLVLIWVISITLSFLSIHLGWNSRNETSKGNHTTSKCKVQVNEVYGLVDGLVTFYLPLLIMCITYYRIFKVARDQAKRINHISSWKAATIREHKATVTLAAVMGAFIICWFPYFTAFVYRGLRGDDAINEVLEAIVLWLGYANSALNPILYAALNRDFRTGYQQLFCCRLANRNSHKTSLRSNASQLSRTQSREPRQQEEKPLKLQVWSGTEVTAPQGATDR
Procedure: as §1

Melanocortin MC1 = target: T40, Melanocortin MC1 (Homo sapiens, UniProt Q01726)
T40 construct: Eurofins Discovery (contract panel) Item PP223
T40 sequence (Q01726 whole entry): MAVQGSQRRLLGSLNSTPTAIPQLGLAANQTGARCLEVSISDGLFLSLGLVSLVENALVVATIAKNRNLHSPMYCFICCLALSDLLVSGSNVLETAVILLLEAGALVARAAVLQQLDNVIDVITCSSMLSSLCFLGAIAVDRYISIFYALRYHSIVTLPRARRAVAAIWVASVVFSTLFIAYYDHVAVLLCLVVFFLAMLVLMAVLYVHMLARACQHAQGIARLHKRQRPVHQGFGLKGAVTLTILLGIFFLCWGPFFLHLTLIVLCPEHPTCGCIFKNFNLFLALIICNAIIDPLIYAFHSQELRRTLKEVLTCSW
Procedure: as §1

Adrenergic α2B = target: T41, Adrenergic α2B (Homo sapiens, UniProt P18089)
T41 construct: Eurofins Discovery (contract panel) PP223
Procedure: as §1

T1 sequence (P08588 whole entry): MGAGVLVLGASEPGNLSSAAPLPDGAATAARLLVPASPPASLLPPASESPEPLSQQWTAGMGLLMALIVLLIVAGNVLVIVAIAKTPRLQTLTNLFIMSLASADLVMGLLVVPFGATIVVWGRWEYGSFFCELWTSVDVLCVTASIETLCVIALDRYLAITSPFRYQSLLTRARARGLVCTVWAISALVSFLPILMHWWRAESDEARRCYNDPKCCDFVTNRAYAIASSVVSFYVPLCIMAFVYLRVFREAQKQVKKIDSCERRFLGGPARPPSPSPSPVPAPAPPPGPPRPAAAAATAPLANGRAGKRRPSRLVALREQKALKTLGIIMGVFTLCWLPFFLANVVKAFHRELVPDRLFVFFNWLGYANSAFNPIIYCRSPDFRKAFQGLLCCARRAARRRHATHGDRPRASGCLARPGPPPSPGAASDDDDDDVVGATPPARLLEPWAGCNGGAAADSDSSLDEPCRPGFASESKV

For `CC(=O)N1CC2(CCN(C(=O)[C@@H](CCCCN)NC(=O)[C@@H](CC(C)C)NC(=O)[C@@H](Cc3ccccc3)NC(=O)[C@H](N)Cc3ccccc3)CC2)C1` [HSK21542, 7-(D-phenylalanyl-D-phenylalanyl-D-leucyl-D-lysyl)-2-acetyl-2,7-diazaspiro (3.5)nonane], the inhibition at 10 µM (Adrenergic β1) was 11%, the inhibition at 10 µM (Adrenergic α1A) was 12% and the inhibition at 10 µM (Histamine H1) was 4%. The inhibition at 10 µM (Adrenergic α1B) was 3%, the inhibition at 10 µM (Adrenergic α1D) was -1% and the inhibition at 10 µM [1] was 0%. For the same molecule, the inhibition at 10 µM (Chemokine CXCR2 (IL-8RB)) was 4%, the inhibition at 10 µM (Muscarinic M1) was 9% and the inhibition at 10 µM (Endothelin ETA) was 4%. The inhibition at 10 µM (Muscarinic M2) was 1%, the inhibition at 10 µM [2] was 1% and the inhibition at 10 µM (Adenosine A2A) was 3%. The inhibition at 10 µM [3] was 0%, the inhibition at 10 µM (Muscarinic M3) was -3% and the inhibition at 10 µM [4] was 19%. It also gave an inhibition at 10 µM (Chemokine CCR1) of -4%, an inhibition at 10 µM (Potassium Channel hERG) of 1% and an inhibition at 10 µM (Glucocorticoid) of 8%. The inhibition at 10 µM [5] was 14%, the inhibition at 10 µM (GABAB1A) was -8% and the inhibition at 10 µM (Melanocortin MC4) was 27%. It also gave an inhibition at 10 µM (Progesterone PR-B) of -1%, an inhibition at 10 µM (Dopamine D2L) of -6% and an inhibition at 10 µM [6] of 8%. It also gave an inhibition at 10 µM (Estrogen ERα) of 0%, an inhibition at 10 µM [7] of 10% and an inhibition at 10 µM [8] of 7%. For the same molecule, the inhibition at 10 µM (Adenosine A1) was 0%, the inhibition at 10 µM [9] was 2% and the inhibition at 10 µM [10] was 19%. It also gave an inhibition at 10 µM (Calcium Channel N-Type) of -3%, an inhibition at 10 µM [11] of -12% and an inhibition at 10 µM (Adrenergic α2A) of 7%. The inhibition at 10 µM (Muscarinic M4) was 3%, the inhibition at 10 µM (Opiate μ (OP3, MOP)) was 0% and the inhibition at 10 µM (Bradykinin B2) was -3%. For the same molecule, the inhibition at 10 µM (Vasopressin V1A) was -24%, the inhibition at 10 µM (PPARγ) was 3% and the inhibition at 10 µM (Histamine H2) was 8%. The inhibition at 10 µM (Melanocortin MC1) was -3% and the inhibition at 10 µM (Adrenergic α2B) was -6%.
